US10399968B2, “Hydroxyalkyl thiadiazole derivatives” (Daiichi Sankyo Company, Limited, priority 2015, dated 2019)
Converted amounts (≈) assume the structure as drawn. Where two headings read alike, the source gives them in different places.

What was measured:
[1] = system: Clostridium difficile ATCC 43255; experiment: Susceptibility of Clostridium difficile, agar dilution MIC; format: cell-based; settings: Clostridioides difficile, ATCC43255, anaerobic
Protocol: The antibacterial activity of the compounds of the present invention against Clostridium difficile clinical isolates was tested by the agar dilution method. The assay was carried out according to the CLSI guidelines for managing the procedures of susceptibility tests “M11-A8, Methods for Antimicrobial Susceptibility Testing of Anaerobic Bacteria; Approved Standard-Eighth Edition. CLSI document (2012)”.
The test strains were spread on supplemented Brucella agar (SBA) plates and grown at 36° C. under anaerobic condition for 42 to 48 hours. The test compound dilutions were prepared with Brucella broth and SBA plates containing dilution of test compound were prepared. As an anaerobic growth control, plates not containing the test compound were also prepared. Colonies grown on plates were suspended with Brucella broth to adjust the turbidity to 0.5 McFarland using a densitometer. Suspension (1-2 μL) of the test strains was inoculated onto each agar surface by using a bacterial suspension inoculation apparatus. After anaerobic incubation at 36° C. for 42 to 48 hours, absence and presence of growth of each strain were examined with unaided eye. The MIC was determined at which a marked reduction occurs in the appearance of growth on the test plate as compared to that of growth on the anaerobic control plates.

[2] = target: Clostridium difficile DNA gyrase (Clostridioides difficile, UniProt Q18C89); experiment: DNA supercoiling inhibition assay; format: biochemical; settings: supercoiling of relaxed pBR322 DNA, 60 minutes at 37° C.
Protocol: DNA supercoiling assays (30 μL reaction) were performed in a buffer containing 15 mM Tris-HCl pH 7.5, 13% glycerol, 6 mM MgCl2, 0.1 mg/mL BSA, 70 mM KCl, 1 mM dithioerythritol, 400 ng of DNA substrate (relaxed pBR322 DNA) and different concentrations of test compounds and/or standards. The dilutions of test compounds and standards were prepared in 20% dimethylsulfoxide (DMSO) and added 3 μL/reaction. The reaction was started by adding 2 μL amounts of Clostridium difficile DNA gyrase into the reaction mixtures and reactions were allowed to proceed for 60 minutes at 37° C. A reaction was carried out by adding 3 μL of 20% DMSO instead of test compound as full reaction control, and another reaction was carried out by adding sterile water instead of the enzyme as no reaction control.
Reactions were stopped by the addition of 5 μL of 6×loading dye and were analyzed by electrophoresis through 1.0% agarose gels with 1×TAE running buffer. Gels were run at 60 V for 3 hours, stained with EtBr, and visualized by Gel Doc system (BioRad). Intensity of the supercoiled DNA bands was quantified, and the IC50 of Clostridium difficile DNA gyrase was calculated using Graph Pad Prism.

[3] = system: Clostridium difficile 2009155, a NAP1/027 strain; experiment: Hamster CDI model; format: in vivo; settings: 0.3 mg/kg/day by oral route, 5 days
Protocol: The in vivo efficacy of test compounds were evaluated in a hamster CDI model caused by Clostridium difficile 2009155, a NAP1/027 strain. Syrine hamsters (6-8-weeks old) were primed with a single subcutaneous injection of clindamycin (30 mg/kg) 1-5 days prior to infection. Hamsters were infected by oral gavage with 1 ml of spore suspension ([…]) prepared in PBS. The drug was administered to the hamsters 6 hours post infection by oral or subcutaneous route at an interval of 24 hours for 5 days. The death and survival of the non-treated group and the drug-administered group were recorded once daily for 35 days.

[4] = system: S. aureus ATCC 29213; experiment: Susceptibility of bacteria, broth microdilution MIC; format: cell-based; settings: Staphylococcus aureus, ATCC29213
Protocol: The antibacterial activity of the compounds of the present invention was tested by the broth microdilution method. The assay was carried out according to the CLSI guidelines for managing the procedures of susceptibility tests: “M7-A7 Methods for Dilution Antimicrobial Susceptibility Tests for Bacteria That Grow Aerobically; Approved Standard-Seventh Edition (2006)”. Test strains were grown on appropriate agar plates overnight. A broth containing the test compound diluted serially 2-fold and diluents were dispensed at 100 μL to each well of a 96-well microplate. As a growth control, a well with a broth not containing the test compound was also prepared. Colonies grown on the plates were suspended in saline, adjusted to 0.5 McFarland (OD625=0.08 to 0.10) using a colorimeter, and then diluted 10-fold with saline. The bacterial suspension was inoculated at 4 μL into each well of the microplate using a bacterial suspension inoculation apparatus. The inoculated microplate was incubated at 35° C. overnight (about 20 hours). The growth condition was observed by the naked eye, and the minimum concentration to inhibit bacterial proliferation was defined as a minimum inhibitory concentration (MIC). The MICs of compounds disclosed herein for E. faecium, Streptococcus pneumoniae and Haemophilus influenzae are shown in Table 2, while for S. aureus in Table 3.

[5] = Solubility in water (JP1 / JP2 fluids); format: physicochemical; settings: thermodynamic from solid
Protocol: A 10 mmol/L solution of the test compound was prepared in DMSO and dispensed 100 μL of 10 mmol/L DMSO stock solutions into labeled glass tubes in duplicate, one for Japanese Pharmacopeia First Fluid (JP1) and second for Japanese Pharmacopeia Second Fluid (JP2). After evaporation of DMSO from each tube, 500 μL of JP1 and JP2 fluid were added in each tube, respectively. These tubes were sonicated for 1 minute and placed on shaker for 30 minutes with an interval of 30 seconds at every 5 minute. Tubes were placed in dark at room temperature for 1 hour and solution was filtered through membrane filter. The filtrate was diluted 2-fold and 10-fold. The resulting test solutions was analyzed and quantified against the standards using UPLC (standard preparation—10 mmol/L solution in DMSO is serially diluted with 50% aqueous acetonitrile solution to prepare 2 solutions; 100 μmol/L standard solution and 5 μmol/L standard solutions).

[6] = system: Haemophilus influenzae ATCC 49247; experiment: Susceptibility of bacteria, broth microdilution MIC; format: cell-based; settings: ATCC49247
Protocol: (§1) The antibacterial activity of the compounds of the present invention was tested by the broth microdilution method. The assay was carried out according to the CLSI guidelines for managing the procedures of susceptibility tests: “M7-A7 Methods for Dilution Antimicrobial Susceptibility Tests for Bacteria That Grow Aerobically; Approved Standard-Seventh Edition (2006)”. Test strains were grown on appropriate agar plates overnight. A broth containing the test compound diluted serially 2-fold and diluents were dispensed at 100 μL to each well of a 96-well microplate. As a growth control, a well with a broth not containing the test compound was also prepared. Colonies grown on the plates were suspended in saline, adjusted to 0.5 McFarland (OD625=0.08 to 0.10) using a colorimeter, and then diluted 10-fold with saline. The bacterial suspension was inoculated at 4 μL into each well of the microplate using a bacterial suspension inoculation apparatus. The inoculated microplate was incubated at 35° C. overnight (about 20 hours). The growth condition was observed by the naked eye, and the minimum concentration to inhibit bacterial proliferation was defined as a minimum inhibitory concentration (MIC).

[7] = system: Streptococcus pneumoniae ATCC 49619; experiment: as above; format: cell-based; settings: ATCC49619
Protocol: as §1

[8] = system: E. faecium ATCC 29212; experiment: as above; format: cell-based; settings: Enterococcus faecium, ATCC29212
Protocol: as §1

[9] = system: P. acnes ATCC 6921; experiment: Susceptibility of P. acnes, agar dilution MIC; format: cell-based; settings: Cutibacterium acnes, ATCC6921, anaerobic
Protocol: (§2) The antibacterial activity of the compounds of the present invention against P. acnes clinical isolates was tested by the agar dilution method. The assay was carried out according to the CLSI guidelines document (Clinical and Laboratory Standards Institute, 2012 & 2016). The test strains were spread on supplemented Brucella agar (SBA) plates and grown for 42 to 48 hours at 36° C. under anaerobic condition. The test compound dilutions were prepared with Brucella broth and SBA plates containing dilution of test compound were prepared. As an anaerobic growth control and to check the aerobic contamination, plates not containing the test compound were also prepared. Colonies grown on plates were suspended with Brucella broth to adjust the turbidity to 0.5 McFarland using a densitometer. Suspension (1-2 μL) of the test strains was inoculated onto each agar surface by using a bacterial suspension inoculation apparatus (multipoint inoculator). After anaerobic incubation for 42 to 48 hours at 36° C., absence and presence of growth of each strain on growth control plates and test compounds plate were examined with unaided eye. The MIC was determined at which a marked reduction occurs in the appearance of growth on the test plate as compared to that of growth on the anaerobic control plates.

[10] = system: P. acnes IHMA 775486; experiment: Susceptibility of P. acnes, agar dilution MIC; format: cell-based; settings: Cutibacterium acnes, IHMA775486, anaerobic
Protocol: as §2

[11] = system: P. acnes ATCC 6523; experiment: Susceptibility of P. acnes, agar dilution MIC; format: cell-based; settings: Cutibacterium acnes, ATCC6523, anaerobic
Protocol: as §2

[12] = system: P. acnes IHMA 103740; experiment: Susceptibility of P. acnes, agar dilution MIC; format: cell-based; settings: Cutibacterium acnes, IHMA103740, anaerobic
Protocol: as §2

[13] = Japanese Pharmacopeia First Fluid (JP1), pH 1.2, simulated gastric fluid, read-out: Solubility JP1
[14] = Japanese Pharmacopeia Second Fluid (JP2), pH 6.8, aqueous buffer, read-out: Solubility JP2

Sequence of Clostridium difficile DNA gyrase (Q18C90 entry or part of it): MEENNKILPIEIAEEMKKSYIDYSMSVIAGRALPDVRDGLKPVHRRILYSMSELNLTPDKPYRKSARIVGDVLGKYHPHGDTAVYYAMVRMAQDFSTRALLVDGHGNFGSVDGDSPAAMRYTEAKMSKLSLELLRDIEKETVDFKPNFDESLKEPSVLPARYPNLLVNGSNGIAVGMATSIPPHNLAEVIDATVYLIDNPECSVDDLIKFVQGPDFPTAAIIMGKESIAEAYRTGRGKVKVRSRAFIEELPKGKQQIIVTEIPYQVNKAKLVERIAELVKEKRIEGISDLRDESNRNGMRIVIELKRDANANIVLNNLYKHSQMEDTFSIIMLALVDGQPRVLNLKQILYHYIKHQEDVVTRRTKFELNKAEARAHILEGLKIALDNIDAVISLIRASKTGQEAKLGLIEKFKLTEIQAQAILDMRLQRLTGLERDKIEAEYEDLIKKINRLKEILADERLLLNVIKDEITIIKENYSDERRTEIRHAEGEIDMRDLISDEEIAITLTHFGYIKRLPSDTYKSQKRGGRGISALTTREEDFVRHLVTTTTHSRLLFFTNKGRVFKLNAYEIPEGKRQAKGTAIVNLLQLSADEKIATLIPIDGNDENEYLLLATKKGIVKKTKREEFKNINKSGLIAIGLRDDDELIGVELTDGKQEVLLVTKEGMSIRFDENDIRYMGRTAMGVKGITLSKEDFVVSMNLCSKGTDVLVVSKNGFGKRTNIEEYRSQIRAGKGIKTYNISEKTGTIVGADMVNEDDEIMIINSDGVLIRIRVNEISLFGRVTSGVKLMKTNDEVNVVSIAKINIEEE
Sequence of Clostridium difficile DNA gyrase (Q18C89 entry or part of it): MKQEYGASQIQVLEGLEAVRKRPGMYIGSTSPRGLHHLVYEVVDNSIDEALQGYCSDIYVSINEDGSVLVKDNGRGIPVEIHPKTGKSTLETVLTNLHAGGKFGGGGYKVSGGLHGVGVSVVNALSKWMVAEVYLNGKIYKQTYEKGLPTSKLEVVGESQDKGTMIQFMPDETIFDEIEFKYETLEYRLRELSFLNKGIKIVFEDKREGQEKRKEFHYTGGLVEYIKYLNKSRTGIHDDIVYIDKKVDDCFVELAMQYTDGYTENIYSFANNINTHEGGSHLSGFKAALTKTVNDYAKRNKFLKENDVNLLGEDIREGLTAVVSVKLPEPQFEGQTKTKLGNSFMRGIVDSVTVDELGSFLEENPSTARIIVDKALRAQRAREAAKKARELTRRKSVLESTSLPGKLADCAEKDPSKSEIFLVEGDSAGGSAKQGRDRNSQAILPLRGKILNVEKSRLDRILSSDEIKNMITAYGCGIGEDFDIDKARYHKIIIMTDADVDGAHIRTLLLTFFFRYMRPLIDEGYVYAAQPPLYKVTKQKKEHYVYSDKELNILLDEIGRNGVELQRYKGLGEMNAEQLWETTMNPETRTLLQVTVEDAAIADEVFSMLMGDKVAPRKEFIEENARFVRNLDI

| SMILES | MIC [1] [µg/mL] | IC50 [2] [nM] | survival on day 35 [3] [%] | MIC [4] [µg/mL] | solubility at 30 min [5, 13] [µg/mL] | solubility at 30 min [5, 14] [µg/mL] | MIC [6] [µg/mL] | MIC [7] [µg/mL] | MIC [8] [µg/mL] | MIC [9] [µg/mL] | MIC [10] [µg/mL] | MIC [11] [µg/mL] | MIC [12] [µg/mL] |
| --- | --- | --- | --- | --- | --- | --- | --- | --- | --- | --- | --- | --- | --- |
| CCc1[nH]c(C(=O)N[C@@H]2CCN(c3nnc(C(C)(O)CO)s3)C[C@@H]2OC)nc1Cl (stereo in doubt) [Compound No. 11, 4-Chloro-N-[(3S,4R)-1-{5-[(2S)-1,2-dihydroxypropan-2-yl]-1,3,4-thiadiazol-2-yl}-3-methoxypiperidin-4-yl]-5-ethyl-1H-imidazole-2-carboxamide] | 0.06 (≈ 0.135 µM) | 27 | 100 | 1 (≈ 2.25 µM) | 884 (≈ 1990 µM) | 264 (≈ 593 µM) |  |  |  |  |  |  |  |
| CCO[C@H]1CN(c2nnc(C(C)(C)O)s2)CC[C@H]1NC(=O)c1nc(Cl)c(CC)[nH]1 [Compound No. 7, 4-Chloro-N-{(3S,4R)-3-ethoxy-1-[5-(2-hydroxypropan-2-yl)-1,3,4-thiadiazol-2-yl]piperidin-4-yl}-5-ethyl-1H-imidazole-2-carboxamide] | 0.125 (≈ 0.282 µM) |  |  | 0.5 (≈ 1.13 µM) |  | 611 (≈ 1380 µM) |  |  |  |  |  |  |  |
| CCO[C@H]1CN(c2nnc(C(C)O)s2)CC[C@H]1NC(=O)c1nc(Cl)c(CC)[nH]1 (stereo partly drawn) [Compound No. 1, 4-Chloro-N-{(3S,4R)-3-ethoxy-1-[5-(1-hydroxyethyl)-1,3,4-thiadiazol-2-yl]piperidin-4-yl}-5-ethyl-1H-imidazole-2-carboxamide] | 0.03 (≈ 0.0699 µM) | 8.63 | 100 | 0.5 (≈ 1.17 µM) |  |  | 2 (≈ 4.66 µM) | 0.25 (≈ 0.583 µM) | 0.25 (≈ 0.583 µM) |  |  |  |  |
| CCc1[nH]c(C(=O)N[C@@H]2CCN(c3nnc(C(O)CO)s3)C[C@@H]2OC)nc1Cl (stereo in doubt) [Compound No. 9, 4-Chloro-N-[(3S,4R)-1-{5-[(1R)-1,2-dihydroxyethyl]-1,3,4-thiadiazol-2-yl}-3-methoxypiperidin-4-yl]-5-ethyl-1H-imidazole-2-carboxamide] | 0.125 (≈ 0.29 µM) |  |  | 4 (≈ 9.28 µM) | 862 (≈ 2000 µM) | 220 (≈ 511 µM) |  |  |  | 0.125 (≈ 0.29 µM) | 0.125 (≈ 0.29 µM) | 0.125 (≈ 0.29 µM) | 0.125 (≈ 0.29 µM) |
| CCc1[nH]c(C(=O)N[C@@H]2CCN(c3nnc(C(C)CO)s3)C[C@@H]2OC)nc1Cl (stereo partly drawn) [Compound No. 6, 4-Chloro-5-ethyl-N-{(3S,4R)-1-[5-(1-hydroxypropan-2-yl)-1,3,4-thiadiazol-2-yl]-3-methoxypiperidin-4-yl}-1H-imidazole-2-carboxamide] | 0.125 (≈ 0.291 µM) |  |  | 0.5 (≈ 1.17 µM) |  |  |  |  |  | 0.125 (≈ 0.291 µM) | 0.25 (≈ 0.583 µM) | 0.125 (≈ 0.291 µM) | 0.25 (≈ 0.583 µM) |
| CCc1[nH]c(C(=O)N[C@@H]2CCN(c3nnc(C(O)CO)s3)C[C@@H]2OC)nc1Cl (stereo in doubt) [Compound No. 8, 4-Chloro-N-[(3S,4R)-1-{5-[(1S)-1,2-dihydroxyethyl]-1,3,4-thiadiazol-2-yl}-3-methoxypiperidin-4-yl]-5-ethyl-1H-imidazole-2-carboxamide] | 0.125 (≈ 0.29 µM) |  |  | 4 (≈ 9.28 µM) | 728 (≈ 1690 µM) | 125 (≈ 290 µM) |  |  |  | 0.25 (≈ 0.58 µM) | 0.25 (≈ 0.58 µM) | 0.25 (≈ 0.58 µM) | 0.25 (≈ 0.58 µM) |
